# From patent US11279707B2, “NEK inhibitors and methods of use” (DANA-FARBER CANCER INSTITUTE, INC., priority 2017, dated 2022)
# How the values were obtained:
# Assay type in all cases: biochemical
# DMPK = target: T1, DMPK (Homo sapiens, UniProt Q09013); experiment: kinase inhibition, DMPK
# T1 sequence (Q09013 1-629): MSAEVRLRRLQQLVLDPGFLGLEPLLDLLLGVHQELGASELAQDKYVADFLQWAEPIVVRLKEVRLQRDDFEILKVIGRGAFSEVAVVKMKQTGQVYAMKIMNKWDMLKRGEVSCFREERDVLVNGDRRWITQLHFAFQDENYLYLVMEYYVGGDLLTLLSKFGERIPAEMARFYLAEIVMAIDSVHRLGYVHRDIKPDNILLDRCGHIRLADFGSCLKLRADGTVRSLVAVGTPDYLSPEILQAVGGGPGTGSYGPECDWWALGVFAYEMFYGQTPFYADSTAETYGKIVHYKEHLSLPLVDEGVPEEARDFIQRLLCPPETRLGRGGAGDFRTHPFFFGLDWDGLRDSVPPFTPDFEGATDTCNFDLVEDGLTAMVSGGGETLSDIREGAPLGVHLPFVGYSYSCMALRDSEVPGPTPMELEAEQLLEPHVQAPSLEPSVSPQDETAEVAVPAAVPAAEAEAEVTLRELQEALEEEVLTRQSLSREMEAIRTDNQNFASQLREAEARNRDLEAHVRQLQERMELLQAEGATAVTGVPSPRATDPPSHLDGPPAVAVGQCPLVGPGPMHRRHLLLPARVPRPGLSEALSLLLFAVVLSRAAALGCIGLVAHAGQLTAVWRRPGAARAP
# NEK9 = target: T2, NEK9 (Homo sapiens, UniProt Q8TD19); experiment: kinase inhibition, NEK9
# T2 sequence (Q8TD19 1-979): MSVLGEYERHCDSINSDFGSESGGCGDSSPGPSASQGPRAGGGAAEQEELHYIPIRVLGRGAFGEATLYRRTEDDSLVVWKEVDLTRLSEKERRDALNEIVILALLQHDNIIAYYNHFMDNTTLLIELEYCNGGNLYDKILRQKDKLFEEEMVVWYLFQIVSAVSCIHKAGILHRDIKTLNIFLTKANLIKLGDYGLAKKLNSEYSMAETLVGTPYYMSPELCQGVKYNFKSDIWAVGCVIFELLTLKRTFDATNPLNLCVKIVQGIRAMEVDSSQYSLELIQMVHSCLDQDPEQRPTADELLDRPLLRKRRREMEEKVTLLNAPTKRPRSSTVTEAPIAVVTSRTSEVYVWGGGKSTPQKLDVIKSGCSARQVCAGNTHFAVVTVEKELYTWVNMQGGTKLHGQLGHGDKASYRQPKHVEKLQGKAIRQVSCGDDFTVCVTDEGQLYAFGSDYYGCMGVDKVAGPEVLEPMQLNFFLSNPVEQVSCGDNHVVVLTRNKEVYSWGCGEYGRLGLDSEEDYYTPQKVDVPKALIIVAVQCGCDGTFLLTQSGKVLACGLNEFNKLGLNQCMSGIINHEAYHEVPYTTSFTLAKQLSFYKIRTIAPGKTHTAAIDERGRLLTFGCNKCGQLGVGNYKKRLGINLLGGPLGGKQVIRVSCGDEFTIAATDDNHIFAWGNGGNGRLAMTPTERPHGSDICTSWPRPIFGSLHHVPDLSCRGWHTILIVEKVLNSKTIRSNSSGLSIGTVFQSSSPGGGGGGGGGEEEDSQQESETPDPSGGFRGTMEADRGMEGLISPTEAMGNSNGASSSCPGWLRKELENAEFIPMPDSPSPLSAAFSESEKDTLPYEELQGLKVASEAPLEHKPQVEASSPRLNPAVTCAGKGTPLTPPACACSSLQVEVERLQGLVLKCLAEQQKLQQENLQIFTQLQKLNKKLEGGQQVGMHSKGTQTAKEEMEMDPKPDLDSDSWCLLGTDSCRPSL
# NEK7 = NEK7 (Homo sapiens, UniProt Q8TDX7); experiment: kinase inhibition, NEK7
# NEK6 = NEK6 (Homo sapiens, UniProt Q9HC98); experiment: kinase inhibition, NEK6
# CLK = experiment: kinase inhibition, CLK
# NEK2 = target: T3, NEK2 (Homo sapiens, UniProt P51955); experiment: kinase inhibition, NEK2
# T3 sequence (P51955 1-445): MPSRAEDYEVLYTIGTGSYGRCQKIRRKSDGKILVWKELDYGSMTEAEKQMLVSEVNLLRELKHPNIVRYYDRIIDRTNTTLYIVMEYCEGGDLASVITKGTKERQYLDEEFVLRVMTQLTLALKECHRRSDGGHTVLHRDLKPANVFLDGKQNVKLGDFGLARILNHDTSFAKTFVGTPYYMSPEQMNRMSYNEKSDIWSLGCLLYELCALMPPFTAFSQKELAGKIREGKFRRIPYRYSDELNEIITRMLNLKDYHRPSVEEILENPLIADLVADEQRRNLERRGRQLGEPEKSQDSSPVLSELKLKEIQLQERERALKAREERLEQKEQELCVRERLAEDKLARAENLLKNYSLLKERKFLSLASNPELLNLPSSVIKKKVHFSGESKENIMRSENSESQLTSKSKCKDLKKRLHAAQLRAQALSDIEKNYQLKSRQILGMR
# Sequence of NEK7 (Q8TDX7 whole entry, species assumed): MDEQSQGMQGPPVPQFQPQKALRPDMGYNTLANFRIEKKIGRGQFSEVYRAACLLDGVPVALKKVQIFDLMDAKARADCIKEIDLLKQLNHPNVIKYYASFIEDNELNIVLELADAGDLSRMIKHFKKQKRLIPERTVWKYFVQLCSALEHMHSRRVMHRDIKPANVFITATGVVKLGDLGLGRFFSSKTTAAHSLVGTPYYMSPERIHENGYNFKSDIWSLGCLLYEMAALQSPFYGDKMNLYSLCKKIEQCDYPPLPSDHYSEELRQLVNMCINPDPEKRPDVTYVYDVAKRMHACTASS
# Sequence of NEK6 (Q9HC98 whole entry, species assumed): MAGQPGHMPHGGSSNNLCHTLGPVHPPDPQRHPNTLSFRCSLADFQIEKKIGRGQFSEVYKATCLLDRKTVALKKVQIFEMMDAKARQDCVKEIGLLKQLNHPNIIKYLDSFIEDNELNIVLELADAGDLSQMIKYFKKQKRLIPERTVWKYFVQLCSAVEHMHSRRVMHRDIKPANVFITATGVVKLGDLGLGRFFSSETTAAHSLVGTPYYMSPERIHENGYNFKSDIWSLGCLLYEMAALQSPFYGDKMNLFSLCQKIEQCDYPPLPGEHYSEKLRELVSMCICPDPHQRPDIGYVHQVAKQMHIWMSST
Compound,IC50 (DMPK) [nM],IC50 (NEK9) [nM],IC50 (NEK7) [nM],IC50 (NEK6) [nM],IC50 (CLK) [nM],IC50 (NEK2) [nM]
Cn1c(=O)c2cc3ccccc3n2c2nc(Nc3cc(N4CCOCC4)cc(N4CCOCC4)c3)ncc21 [Compound I-21],250 to 1000,50 to 250,250 to 1000,250 to 1000,250 to 1000,≤ 50
Cn1c(=O)c2cc3ccccc3n2c2nc(Nc3ccc(N4CCOCC4)nc3)ncc21 [Compound I-22],250 to 1000,50 to 250,250 to 1000,1000 to 5000,250 to 1000,50 to 250
CN1CCN(C2CCN(c3ccc(Nc4ncc5c(n4)n4c(cc6ccccc64)c(=O)n5C)cn3)CC2)CC1 [Compound I-23],50 to 250,≤ 50,250 to 1000,250 to 1000,50 to 250,≤ 50
CCN1CCN(c2ccc(Nc3ncc4c(n3)n3c(cc5ccccc53)c(=O)n4C)cc2C(F)(F)F)CC1 [Compound I-25],–,50 to 250,–,–,–,≤ 50
CCn1c(=O)c2cc3ccccc3n2c2nc(Nc3ccc(N4CCN(C)CC4)cc3)ncc21 [Compound I-26],–,50 to 250,–,–,–,50 to 250
CCn1c(=O)c2cc3ccccc3n2c2nc(Nc3ccc(N4CCN(C)CC4)c(C(F)(F)F)c3)ncc21 [Compound I-27],–,250 to 1000,–,–,–,250 to 1000
CCN1CCN(c2ccc(Nc3ncc4c(n3)N3c5ccccc5CC3C(=O)N4C)cc2)CC1 (stereo not drawn) [Compound I-28],–,≤ 50,–,–,–,50 to 250
CN1C(=O)C2Cc3ccccc3N2c2nc(Nc3ccc(N4CCC(N5CCOCC5)CC4)cc3)ncc21 (stereo not drawn) [Compound I-29],–,≤ 50,–,–,–,≤ 50
COc1cc(N2CCN(C)CC2)ccc1Nc1ncc2c(n1)N1c3ccccc3CC1C(=O)N2C (stereo not drawn) [Compound I-30],–,50 to 250,–,–,–,250 to 1000
CN1C(=O)C2Cc3ccccc3N2c2nc(Nc3cc(N4CCOCC4)cc(N4CCOCC4)c3)ncc21 (stereo not drawn) [Compound I-31],–,50 to 250,–,–,–,50 to 250
CN1C(=O)C2Cc3ccccc3N2c2nc(Nc3ccc(N4CCOCC4)cc3)ncc21 (stereo not drawn) [Compound I-32],–,50 to 250,–,–,–,50 to 250
COc1cc(N2CCOCC2)ccc1Nc1ncc2c(n1)N1c3ccccc3CC1C(=O)N2C (stereo not drawn) [Compound I-33],–,250 to 1000,–,–,–,1000 to 5000
